Among the data in publication PMC5404542, “In Vitro and In Vivo Antifungal Profile of a Novel and Long-Acting Inhaled Azole, PC945, on Aspergillus fumigatus Infection” (Antimicrobial Agents and Chemotherapy, 2017) are plasma protein binding and systemic exposure values, retold here.

One data set is described as follows: Plasma protein binding. Format: in vitro ADME.
The nature of data set [1]: Systemic exposure after topical/intranasal treatment. It counts as in vivo. Conditions: data not shown.

On to `Cc1cc(N2CCN(c3ccc(C(=O)Nc4ccc(F)cc4)cc3)CC2)ccc1OC[C@@H]1CO[C@@](Cn2cncn2)(c2ccc(F)cc2F)C1` [PC945, 4-[4-(4-{[(3R,5R)-5-(2,4-difluorophenyl)-5-(1H-1,2,4-triazol-1-ylmethyl)oxolan-3-yl]methoxy}-3-methylphenyl)piperazin-1-yl]-N-(4-fluorophenyl)benzamide], for which the plasma protein binding entry in “Plasma protein binding” is “high levels of plasma protein binding”. The systemic exposure entry in data set [1] is “very low systemic exposure”.
